Results on three compounds are retold here after article PMC4947679, “Quantitative In Vitro and In Vivo Evaluation of Intestinal and Blood-Brain Barrier Transport Kinetics of the Plant N-Alkylamide Pellitorine” (BioMed Research International, 2016).

Details of data set [1]: method as in PMID 19399718. Conditions: oral gavage in rats; cited from earlier work.
The nature of data set [2]: Blood-to-brain transport, multiple time regression (MTR) analysis in mice. Particulars: mice, injection into jugular vein, MTR. Here is the method: Seven-to-ten-week-old female, Institute for Cancer Research, Caesarean Derived-1 (ICR-CD-1) mice (Harlan Laboratories, Venray, Netherlands) weighing 29–32 g were used for the BBB transport experiments. The experiments were performed according to the Ethical Committee principles of laboratory animal welfare as approved by Ghent University (Faculty of Veterinary Medicine, number EC2014/128).
An in vivo multiple time regression (MTR) analysis was performed in order to determine whether pellitorine could enter the brain. A dose solution of 1.8 mg/mL pure pellitorine dissolved in 6.9% EtOH, 2.5% dimethylacetamide, and 0.5% tween 80 (all w/w) diluted in lactated Ringer's solution containing 1% BSA was prepared. After anesthetizing the mice intraperitoneally with a 40% (w/V) urethane solution (3 g/kg), the jugular internalis vein and carotid artery were isolated and 20 μL of the pellitorine dose solution was injected into the jugular vein. After 1, 3, 5, 10, 12.5, and 15 min after injection (with start and end in duplicate), blood was collected from the carotid artery. Immediately thereafter, the mice were decapitated and the brains were isolated. […] The serum concentrations of pellitorine were plotted against the time (expressed in min). The curve was fitted using a first-order kinetic, two-compartment model: C(t) = C 1 × e ^−α×t + C 2 × e ^−β×t, in which C is the concentration of pellitorine in serum at time t, α and β are hybrid constants, dependent on the rate constants k e (elimination rate constant), k 1,2 (rate constant between central and peripheral tissue compartment), k 2,1 (rate constant between peripheral tissue and central compartment), C 1 is the concentration obtained after extrapolation of the distribution phase α to the y-axis, and C 2 is the concentration obtained after extrapolation of the elimination phase β to the y-axis. The ratio of the pellitorine brain and serum concentration (μL/g) was plotted versus the exposure time (θ), which is a derived time variable of the Gjedde-Patlak plot, to determine the BBB influx kinetics of pellitorine.
The exposure time is computed as θ = ∫0 ^T((C s(t) · dt)/C s(T)) and is defined as the integral of the concentration of pellitorine in serum from start (t = 0 min) to time T, divided by the concentration of pellitorine in serum at time T. The integral of the concentration of pellitorine in serum from zero to time T is the area under the curve until time T.
The brain uptake of pellitorine was fitted using a biphasic model, as elaborated by Wong et al.: (4) CbrainT/CsTK·θ+Vg·1−e^−θ·K1−K/Vg+V0≅K=0Vg·1−e^−θ·K1/Vg+V0 in which C brain(T) is the concentration of pellitorine in the brain at time T (ng/g), C s(T) the concentration of pellitorine in serum at time T (ng/μL), K the net clearance (μL/(g·min)), V g the tissue brain distribution volume (μL/g), K 1 the unidirectional clearance from pellitorine from blood to brain (i.e., the unidirectional brain transfer coefficient, also referred to as influx rate) (μL/(g·min)), and V 0 the vascular brain distribution volume (μL/g).

Data set [3] is described as follows: Caco-2 cell permeability assay. It counts as in vitro ADME, human. Particulars: human, Caco-2; positive (high permeability) control, 20 μM. Here is the method:
The Caco-2 cell line originated from a human colorectal carcinoma and was maintained in Dulbecco's modified Eagle's medium (DMEM) (95% humidity, 37°C, 5% CO2), supplemented with 10% (V/V) fetal bovine serum, 100 U/mL penicillin and 100 μg/mL streptomycin, 2 mM L-glutamine, and 1% nonessential amino acids (all from Invitrogen/GIBCO, Ghent, Belgium).
The Caco-2 cell intestinal model was used to investigate the gut mucosa permeation of pellitorine. On each Transwell (Corning Costar, New York, USA) membrane insert filter (0.4 μm pore size, 12 mm filter diameter), the cells were seeded at a density of 2.6 · 10^5 cells/cm^2 cells and cultivated in the described supplemented DMEM. Every second day, the medium was changed. During a period of 21–29 days, the cells were grown and differentiated until monolayers were formed. The integrity of the monolayers was checked via the measurement of transepithelial electrical resistance (TEER) of the monolayers with a Millicell-ERS system (Millipore Corp., Bedford, MA, USA) before and after the transport experiments. The experiments were performed in duplicate for each dose solution. Transport experiments were carried out according to Hubatsch et al. in two directions: from the apical-to-basolateral (ab) direction and from the basolateral-to-apical (ba) direction in Hanks' Balanced Salt solution. Two dose solutions of pellitorine (in Anacyclus pyrethrum extract) of 1 μg/mL in 0.5% EtOH (further indicated as DS1) and of 56 μg/mL in 0.5% of a mixture of vitamin E-TPGS (33.3%), EtOH (11.1%), PEG 400 (33.3%), and PG (22.2%) (further indicated as DS2) dissolved in HBSS were tested.
Final apical volumes of 0.4 mL and basolateral volumes of 1.2 mL were used for 12 mm filter supports during the transport experiment. After 15, 30, 60, 90, and 120 min, samples were taken from the receiver compartment (basolateral to apical transport: 100 μL, apical-to-basolateral transport: 300 μL) and immediately replaced by fresh HBSS. […] Pellitorine was quantified using a ultraperformance liquid chromatography-tandem mass spectrometry (UPLC-MS^2) method as described below.
The apparent permeability coefficient (P app in cm/s) of pellitorine in DS2 was calculated using a sink condition equation, while P app of pellitorine in DS1 was calculated using a nonsink equation. From Fick's first law, J = −D × [dC(x)]/dx (J is the flux or transfer rate along the donor-to-receptor side, D is the diffusion coefficient, x is the distance from the donor compartment, and C(x) is the concentration in the barrier at the coordinate x in the barrier), the following differential equation is derived: dM r(t)/dt = P app × A × [C d(t) − C r(t)], in which P app is the apparent permeability coefficient (a product of distribution coefficient with diffusion coefficient divided by the barrier thickness), M r is the amount of substance in the receiver chamber, A is the cross-sectional area of the barrier, C d is the donor concentration, and C r is the receiver concentration. This differential equation can be solved to calculate P app using different initial conditions depending on sink or nonsink conditions. In case of sink conditions, the following equation was obtained from the amount of compound transported per time dM r(t)/dt with the receiver concentration set to zero [18, 20]:(1) Mrt/Cd,0=Papp×A×t+c, where P app is the apparent permeability coefficient (cm/s), A is the surface area of the filter (1.12 cm^2), C d,0 is the initial concentration in the donor chamber (μg/mL), t is the time (s), and c is a constant term which vanishes, since M r is initially zero at t = 0.
The donor concentration at each time point was calculated by taking into account the amount of compound which already permeated through the cell monolayer during that time interval. In this way, the reduction in donor concentration after every sampling was also taken into account.

Regarding “dodeca-2E,4E,8E,10E/Z-tetraenoic acid isobutylamides”, the elimination half-life in data set [1] is recorded as 1.20 h.
For the compound Dermorphin [reference compound], in data set [2], the “unidirectional influx rate K 1” value is 0.26 µL/g/min.
In the case of `CC(C)NCC(O)COc1cccc2ccccc12` (stereo not drawn) [propranolol, reference compound], the apical-to-basolateral permeability (Papp A→B) (usually how fast a substance crosses the layer from the apical side) at 120 min, 20 μM in data set [3] was 19.1 ×10⁻⁶ cm/s.
